{"source": "patent US20080038402A1", "about": "“RUMINANT ANIMAL FEED FORMULATIONS AND METHODS OF FORMULATING SAME” (priority 2006, published 2008)", "key": {"rumen fluid [1]": {"tested_on": "rumen fluid", "assay": "Rumen fluid pH and volatile fatty acids in rumen-fistulated cows (4x4 latin square)", "format": "in vivo", "method": "(§1) The use of the RAFA, were compared with an animal control. A four by four latin square design was used, employing four rumen-fistulated cows. Cows were fed a standard TMR (total mixed ration) for at least 7 days prior to the start of the experiment, and were assigned to one of the following four 21 day ration sequences: ABCD, BCDA, CDAB, and DABC, where A, B, C, and D are as follows: (A) control (standard TMR); (B) Monensin (control diet plus 200 mg/kg monensin); (C) Surfactant (control diet plus 316 mg/kg Surfactant); (D) Essential Oil (control diet plus 5 mg/kg Essential Oil).\n(§2) Rumen fluid was sampled via the fistula using the Geishawer probe according to standard methodology, with sampling done 2 hours pre-feeding, and again at 2, 4, and 6 hours post-feeding at day 19, 20 or 21 of a 21 day feeding period. Fluid was strained through 4 ply cheesecloth into duplicate containers treated with phosphoric acid (preservative). At the end of each feeding period, rumen fluid from the 2 hours pre-feeding sample was placed into a pre-warmed half litre vacuum flask and forwarded for in vitro studies, described below. The vacuum flask was filled and covered immediately after sampling.\nRumen fluid pH and volatile fatty acids (VEA) were measured."}, "rumen-fistulated cows": {"tested_on": "rumen-fistulated cows", "assay": "Daily milk production and feed consumption", "format": "in vivo", "settings": "by treatment", "method": "as §1"}, "rumen fluid [2]": {"tested_on": "rumen fluid", "assay": "Rumen gas production in vitro (rumen fluid added to buffer and food source, 0 to 6 hours)", "format": "cell-based", "settings": "by treatment of donor cows", "method": "as §2\nRumen fluid samples were also added to buffer and food source, and gas production was recorded from time 0 to 6 hours."}, "rumen fluid [3]": {"tested_on": "rumen fluid", "assay": "Redox, pH and dry matter disappearance of rumen fluid incubated 6 hours at 39° C.", "format": "cell-based, cows", "settings": "by treatment", "method": "as §2\n(§3) Temperature, pH, redox on strained and unstrained rumen fluid were measured to assess viability and consistency. The rumen fluid was incubated for 6 hours at 39° C. with (1) control 0.13 g soybean meal (SBM) and 0.13 g TMR food sample; and (2) test 0.13 g Top Soy and 0.13 g TMR. Samples were analyzed for ammonia concentration and substrate disappearance."}, "rumen fluid [4]": {"tested_on": "rumen fluid", "assay": "Concentration and breakdown of VFA in vitro in incubated rumen fluid", "format": "cell-based, cows", "settings": "by treatment", "method": "as §3\nConcentration and breakdown of volatile fatty acids (VFA) in vitro were tabulated in Table 7, below, as results of statistical analysis across all timepoints."}, "rumen fluid [5]": {"tested_on": "rumen fluid", "assay": "Rumen ammonia level after incubation, by treatment and soy process", "format": "cell-based, cows", "settings": "by treatment", "method": "as §3\nThis trial further validates the adjustments applied to KB in the method when monensin sodium, Surfactant or Essential Oil are included in the diet. Adjustment factors for each RAFA were calculated as the ratio of additive ammonia production to that of the control and applied to the KB during formulation."}, "rumen fluid [6]": {"tested_on": "rumen fluid", "assay": "Example 3a in vitro rumen fluid incubation (gas, DMD, VFA): monensin, soy oil, Ca salts of soy oil", "format": "cell-based", "from_the_text": "One objective of this experiment was to compare these lipid sources (soy oil and calcium salts of soy oil) with each other and in the presence and absence of monensin sodium.\nProduction of iso-valeric acid and n-valeric acid was also used to estimate the level of protein (specifically branched chain amino acid) degradation in the rumen (Benchaar et al 1998), and results of VFA production can thus be used as an adjustment factor to express the benefit of such additives on protein degradability.\n(§4) The measurement of rumen gas production over time is a well described technique (Minson 1998) and is subject to small variation between laboratories. In this laboratory, the substrate employed in all experiments was based on a dried TMR sample. Data from gas measurement observations using two replicates (true volume corrected by subtraction of corresponding negative control values at similar time point) was analyzed by ANOVA with time, treatment, and replicate as main effects in the model. The interaction of time by treatment by replicate was used as the error term. Dry matter digestibility was analyzed by ANOVA with treatment as the main effect in the model and treatment by replicate interaction as the error term. VFA parameters were analyzed by ANOVA with treatment as the main effect in the model and treatment by replicate interaction as the error term.\nStatistical summaries are given in Tables 10-12 below for Mean Gas Production (0 to 6 hours incubation), DMD (Dry Matter Digestibility) %, VFA Tot. (Volatile Fatty Acids total moles), Acetic, Propionic, Butyric, Isobutyric, Isovaleric, and n-Valeric acids (molar percentages).\nThis trial further validates the adjustments applied to KB when monensin and soy oil are included in the diet either separately or in combination. Adjustment factors are calculated as the ratio of rumen active feed additive valerate production (i-valeric acid plus n-valeric acid) in the combination treatment to that of the control (TMR with CaSalts of SoyOil). Using this approach, KB can be adjusted by the following factors: • Monensin=6.36/7.20=0.88 • SoyOil=6.95/7.20=0.97 • Monensin+SoyOil=5.40/7.20=0.75"}, "rumen fluid [7]": {"tested_on": "rumen fluid", "assay": "Example 3c in vitro rumen fluid incubation (gas, DMD, VFA): monensin, organic acid, yeast culture, fermentation solubles", "format": "cell-based", "method": "as §4, with “Data from gas measurement observations using two replicates (true volume corrected by subtraction of corresponding negative control values at similar time point) was analyzed by ANOVA with time, treatment, and replicate as main effects in the model.” left out\nThe protocol used in Example 3a was also used in 3c to investigate the additive effects of other RAFA\nStatistical summaries were tabulated in Tables 18-20 below for Mean Gas Production (0 to 6 hours incubation), DMD (Dry Matter Digestibility) %, VFA Tot. (Volatile Fatty Acids total moles), Acetic, Propionic, I-Butyric, n-Butyric, Isovaleric, and n-Valeric acids (molar percentages)."}}, "note": "Marks after values point to notes of the source that are not given here."}
{"substance": "monensin sodium", "values": [{"measurement": "Rumen pH", "setting": "rumen fluid [1]; by treatment across all time points, 21 day ration, monensin 200 mg/kg, Surfactant 316 mg/kg, Essential Oil 5 mg/kg diet", "value": 6.07}, {"measurement": "Acetic (acetic acid)", "setting": "rumen fluid [1]; rumen fluid by treatment", "value": "57.90^b molar percentage"}, {"measurement": "Prop (propionic acid)", "setting": "rumen fluid [1]; rumen fluid by treatment", "value": "24.91^c molar percentage"}, {"measurement": "VFA total", "setting": "rumen fluid [1]; rumen fluid by treatment", "value": "102.64^b mmol/L"}, {"measurement": "i-But (i-butyric acid)", "setting": "rumen fluid [1]; rumen fluid by treatment", "value": "0.95^b molar percentage"}, {"measurement": "i-Val (i-valeric acid)", "setting": "rumen fluid [1]; rumen fluid by treatment", "value": "1.08^c molar percentage"}, {"measurement": "n-But (n-butyric acid)", "setting": "rumen fluid [1]; rumen fluid by treatment", "value": 12.33, "unit": "molar percentage"}, {"measurement": "n-Val (n-valeric acid)", "setting": "rumen fluid [1]; rumen fluid by treatment", "value": "2.82^b molar percentage"}, {"measurement": "Molar yields of propionate", "setting": "rumen fluid [1]; rumen fluid by treatment, control 24.81", "value": 25.56}, {"measurement": "DMI (dry matter intake)", "setting": "rumen-fistulated cows", "value": "24.7^ab kg/day"}, {"measurement": "Milk", "setting": "rumen-fistulated cows", "value": 43.7, "unit": "kg/day"}, {"measurement": "Milk/kg DMI", "setting": "rumen-fistulated cows", "value": 1.77}, {"measurement": "GAS", "setting": "rumen fluid [2]", "value": "10.39^c ml"}, {"measurement": "pH at T0", "setting": "rumen fluid [3]", "value": 6.31}, {"measurement": "DMD %", "setting": "rumen fluid [3]; 6 hours at 39° C.", "value": 40.43, "unit": "%"}, {"measurement": "Redox (seconds) at T0", "setting": "rumen fluid [3]; cell viability", "value": 30, "unit": "s"}, {"measurement": "Acetic", "setting": "rumen fluid [4]", "value": "58.62^a molar percentage"}, {"measurement": "Prop", "setting": "rumen fluid [4]", "value": "25.51^a molar percentage"}, {"measurement": "VFA total", "setting": "rumen fluid [4]", "value": "75.03^c mmol/L"}, {"measurement": "i-But", "setting": "rumen fluid [4]", "value": 1.18, "unit": "molar percentage"}, {"measurement": "i-Val", "setting": "rumen fluid [4]", "value": "1.44^b molar percentage"}, {"measurement": "n-But", "setting": "rumen fluid [4]", "value": "12.09^bc molar percentage"}, {"measurement": "n-Val", "setting": "rumen fluid [4]", "value": "1.16^c molar percentage"}, {"measurement": "Baseline-corrected Ammonia post incubation", "setting": "rumen fluid [5]", "value": "27.49^a mg/L"}, {"measurement": "Baseline-corrected percent Ammonia reduction with Top Soy relative to SBM", "setting": "rumen fluid [5]", "value": 45.26, "unit": "%"}, {"measurement": "Acetic", "setting": "rumen fluid [6]; VFA", "value": "60.97^ab molar %"}, {"measurement": "Prop", "setting": "rumen fluid [6]; VFA", "value": "20.82^b molar %"}, {"measurement": "i-But", "setting": "rumen fluid [6]; VFA", "value": "1.06^c molar %"}, {"measurement": "i-Val", "setting": "rumen fluid [6]; VFA", "value": "4.65^a molar %"}, {"measurement": "n-But", "setting": "rumen fluid [6]; VFA", "value": 10.79, "unit": "molar %"}, {"measurement": "n-Val", "setting": "rumen fluid [6]; VFA", "value": 1.71, "unit": "molar %"}, {"measurement": "Mean Gas ml 0–6 hr", "setting": "rumen fluid [6]; calculated as increase over Control, 6.6 mg/L monensin, 6 g/L lipid", "value": "5.31^e ml"}, {"measurement": "DMD %", "setting": "rumen fluid [6]; dry matter disappearance", "value": "43.48^a %"}, {"measurement": "VFA, moles", "setting": "rumen fluid [6]; total VFA production", "value": "52.51^a moles"}, {"measurement": "DMD %", "setting": "rumen fluid [7]; Dry Matter Digestibility", "value": "19.4^ad %"}, {"measurement": "Acetic", "setting": "rumen fluid [7]; VFA", "value": 60.5, "unit": "mmol/100 mmol"}, {"measurement": "Prop", "setting": "rumen fluid [7]; VFA", "value": "22.4^ab mmol/100 mmol"}, {"measurement": "i-But", "setting": "rumen fluid [7]; VFA", "value": "4.1^bc mmol/100 mmol"}, {"measurement": "i-Val", "setting": "rumen fluid [7]; VFA", "value": "1.5^abd mmol/100 mmol"}, {"measurement": "n-But", "setting": "rumen fluid [7]; VFA", "value": 10.2, "unit": "mmol/100 mmol"}, {"measurement": "n-Val", "setting": "rumen fluid [7]; VFA", "value": "1.2^abc mmol/100 mmol"}, {"measurement": "Mean Gas ml 0–6 hr", "setting": "rumen fluid [7]; calculated as increase over negative Control", "value": "−0.9^b ml"}, {"measurement": "VFA total", "setting": "rumen fluid [7]; total yields", "value": "41.6^b mmol/L"}]}
